Test system: 782815-120-R-J1-PDC complex spheroid viability
Assay: Anticancer human tumor 782815-120-R-J1-PDC patient-derived colon adenocarcinoma cell line growth inhibition [RAS]
Conditions: for IC50: curve of first compound; for viability, T/C: stronger effect = lower value; active means viability on the fitted dose curve at most 10% of control; inactive means the rest
Outline: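 Tumour cells grown as complex spheroids with HUVEC endothelial cells and mesenchymal stem cells, treated with RAS pathway inhibitor combinations. Each agent spans half-log steps from near clinical Cmax, or 10 microM where Cmax is unknown.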
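Further: spheroids exposed to compounds for 7 days before reading.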
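Wherever viability, T/C is given: 100% = DMSO vehicle control viability.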

O=C(c1ccc(F)c(F)c1Nc1ccc(I)cc1F)N1CC(O)([C@@H]2CCCCN2)C1 + CCn1c(-c2cccnc2C(C)OC)c2c3cc(ccc31)N1CCOC(CC(NC(=O)C(C(C)C)N(C)C(=O)C3(F)CCN(C(=O)C#CC(C)(C)N(C)C)CC3)C(=O)N3CCCC(N3)C(=O)OCC(C)(C)C2)C1
53.4 nM: IC50 (second compound 0.003 µM)
active: viability, T/C (second compound 0.000949 µM, first compound 1 µM) 1.9% | viability, T/C (second compound 0.003 µM, first compound 1 µM) 2.12% | viability, T/C (second compound 0.00949 µM, first compound 1 µM) 1.1% | viability, T/C (second compound 0.03 µM, first compound 1 µM) 1.32% | viability, T/C (second compound 0.0949 µM, first compound 1 µM) 3.86% | viability, T/C (second compound 0.3 µM, first compound 1 µM) 0.95%
40.6 nM: IC50 (second compound 0.3 µM)
45.5 nM: IC50 (second compound 0.00949 µM)
46.1 nM: IC50 (second compound 0.0949 µM)
inactive: viability, T/C (second compound 0.000949 µM, first compound 0.00316 µM) 91.2% | viability, T/C (second compound 0.000949 µM, first compound 0.01 µM) 74.1% | viability, T/C (second compound 0.000949 µM, first compound 0.0316 µM) 60% | viability, T/C (second compound 0.000949 µM, first compound 0.1 µM) 35.2% | viability, T/C (second compound 0.000949 µM, first compound 0.316 µM) 17% | viability, T/C (second compound 0.003 µM, first compound 0.00316 µM) 85.9% | viability, T/C (second compound 0.003 µM, first compound 0.01 µM) 73.5% | viability, T/C (second compound 0.003 µM, first compound 0.0316 µM) 60.6% | viability, T/C (second compound 0.003 µM, first compound 0.1 µM) 39.1% | viability, T/C (second compound 0.003 µM, first compound 0.316 µM) 16.4% | viability, T/C (second compound 0.00949 µM, first compound 0.00316 µM) 88% | viability, T/C (second compound 0.00949 µM, first compound 0.01 µM) 74.6% | viability, T/C (second compound 0.00949 µM, first compound 0.0316 µM) 57.7% | viability, T/C (second compound 0.00949 µM, first compound 0.1 µM) 34.5% | viability, T/C (second compound 0.00949 µM, first compound 0.316 µM) 15.9% | viability, T/C (second compound 0.03 µM, first compound 0.00316 µM) 79.2% | viability, T/C (second compound 0.03 µM, first compound 0.01 µM) 86.5% | viability, T/C (second compound 0.03 µM, first compound 0.0316 µM) 55.3% | viability, T/C (second compound 0.03 µM, first compound 0.1 µM) 36.6% | viability, T/C (second compound 0.03 µM, first compound 0.316 µM) 14.8% | viability, T/C (second compound 0.0949 µM, first compound 0.00316 µM) 78.3% | viability, T/C (second compound 0.0949 µM, first compound 0.01 µM) 73.4% | viability, T/C (second compound 0.0949 µM, first compound 0.0316 µM) 55.4% | viability, T/C (second compound 0.0949 µM, first compound 0.1 µM) 36.5% | viability, T/C (second compound 0.0949 µM, first compound 0.316 µM) 16.3% | viability, T/C (second compound 0.3 µM, first compound 0.00316 µM) 81.3% | viability, T/C (second compound 0.3 µM, first compound 0.01 µM) 66.4% | viability, T/C (second compound 0.3 µM, first compound 0.0316 µM) 56.3% | viability, T/C (second compound 0.3 µM, first compound 0.1 µM) 35.5% | viability, T/C (second compound 0.3 µM, first compound 0.316 µM) 14.2%
47.7 nM: IC50 (second compound 0.000949 µM)
51.9 nM: IC50 (second compound 0.03 µM)
